Converted amounts (≈) assume the structure as drawn.
Tests used:
[1] = tested on: S. epidermidis; assay: MIC antibacterial activity; type: cell-based; details: Staphylococcus epidermidis
[2] = tested on: S. pneumoniae; assay: MIC antibacterial activity; type: cell-based; details: Streptococcus pneumoniae
[3] = tested on: S. pyogenes; assay: MIC antibacterial activity; type: cell-based; details: Streptococcus pyogenes
[4] = tested on: E. faecalis; assay: MIC antibacterial activity; type: cell-based; details: Enterococcus faecalis
[5] = tested on: C. diphtheriae; assay: MIC antibacterial activity; type: cell-based; details: Corynebacterium diphtheriae
[6] = tested on: M. smegmatis; assay: MIC antibacterial activity; type: cell-based; details: Mycolicibacterium smegmatis
[7] = tested on: M. catarrhalis; assay: MIC antibacterial activity; type: cell-based; details: Moraxella catarrhalis
[8] = tested on: H. influenzae; assay: MIC antibacterial activity; type: cell-based; details: Haemophilus influenzae
[9] = tested on: H. pylori; assay: MIC antibacterial activity; type: cell-based; details: Helicobacter pylori
[10] = tested on: methicillin-sensitive Staphylococcus aureus; assay: Wound healing model (FIG. 1); type: in vivo; details: methicillin-susceptible Staphylococcus aureus; mice; topical twice daily from 24 h; sampled 72 h post-infection
Experimental: (§1) FIG. 1. Efficacy of a composition comprising 2,2-Bis(4-hydroxy-3-methylphenyl)heptane in the wound healing model. A defined inoculum of approximately 10^5 CFU of methicillin-sensitive Staphylococcus aureus in 20 μl culture medium was pipetted into a wound approximately 1 cm^2 created by removal of the epidermis from the shaved backs of mice. After 24 hours, the composition comprising 2,2-Bis(4-hydroxy-3-methylphenyl)heptane, placebo control or positive control ointment was applied twice daily. Approximately, seventy two hours post-infection, the wound was sampled and appropriate dilutions plated on nutritive agars for determination of microbial burden. The number of colony forming units (CFU) of methicillin-sensitive Staphylococcus aureus per wound is shown.
(§2) The wound healing model, using methods generally known by those skilled in the art, is used to measure the efficacy of topically applied compounds in suitable vehicles against any bacteria, for example, Staphylococcus epidermis, Staphylococcus aureus, Streptococcus pyrogenes, Haemophilus influenzae, or mixtures thereof. By removing several epidermal layers by surgical procedure, a superficial wound of approximately 1 cm^2 was created. About 10 ^5 cfu/20 ul of culture medium of any bacteria, for example, S aureus, was applied to the wound. […]

[11] = tested on: methicillin-resistant Staphylococcus aureus; assay: Wound healing model (FIG. 2); type: in vivo; details: mice, topical twice daily from 24 h, sampled 72 h post-infection
Experimental: as §1, with “2.” for “1.”, “methicillin-resistant” for “methicillin-sensitive”
as §2

[12] = tested on: Staphylococcus epidermidis; assay: Wound healing model (FIG. 3); type: in vivo; details: mice, topical twice daily from 24 h, sampled 72 h post-infection
Experimental: as §1, with “3.” for “1.”, “epidermis” for “aureus”
as §2

MIC [1]: 2 µg/mL (≈ 6.4 µM)
MIC [2]: 6 µg/mL (≈ 19.2 µM)
MIC [3]: 6 µg/mL (≈ 19.2 µM)
MIC [4]: 2 µg/mL (≈ 6.4 µM)
MIC [5]: 2 µg/mL (≈ 6.4 µM)
MIC [6]: 2 µg/mL (≈ 6.4 µM)
MIC [7]: 2 µg/mL (≈ 6.4 µM)
MIC [8]: 6 µg/mL (≈ 19.2 µM)
MIC [9]: 16 µg/mL (≈ 51.2 µM)
melting point: 99 to 101 °C
Structure (SMILES): CCCCCC(C)(c1ccc(O)c(C)c1)c1ccc(O)c(C)c1 [2,2-Bis(4-hydroxy-3-methylphenyl)heptane]
reducing the population levels of pathogenic bacteria (CFU per wound) [10]: efficacious
reducing the population levels of pathogenic bacteria (CFU per wound) [11]: efficacious
reducing the population levels of pathogenic bacteria (CFU per wound) [12]: efficacious
